Experimental data reported in patent publication US20160145257A1, “SUBSTITUTED XANTHINES AND METHODS OF USE THEREOF” (Hydra Biosciences, Inc., priority 2013, published 2016).
Structures can show the parent of a compound that is named as a salt.

Molecular target: T1, hTRPC5 (Homo sapiens, UniProt Q9UL62)
T1 construct: expressed in transfected cells; host or cells: HEK293 TREx cells with inducible TRPC5 expression
T1 sequence (Q9UL62 1-973): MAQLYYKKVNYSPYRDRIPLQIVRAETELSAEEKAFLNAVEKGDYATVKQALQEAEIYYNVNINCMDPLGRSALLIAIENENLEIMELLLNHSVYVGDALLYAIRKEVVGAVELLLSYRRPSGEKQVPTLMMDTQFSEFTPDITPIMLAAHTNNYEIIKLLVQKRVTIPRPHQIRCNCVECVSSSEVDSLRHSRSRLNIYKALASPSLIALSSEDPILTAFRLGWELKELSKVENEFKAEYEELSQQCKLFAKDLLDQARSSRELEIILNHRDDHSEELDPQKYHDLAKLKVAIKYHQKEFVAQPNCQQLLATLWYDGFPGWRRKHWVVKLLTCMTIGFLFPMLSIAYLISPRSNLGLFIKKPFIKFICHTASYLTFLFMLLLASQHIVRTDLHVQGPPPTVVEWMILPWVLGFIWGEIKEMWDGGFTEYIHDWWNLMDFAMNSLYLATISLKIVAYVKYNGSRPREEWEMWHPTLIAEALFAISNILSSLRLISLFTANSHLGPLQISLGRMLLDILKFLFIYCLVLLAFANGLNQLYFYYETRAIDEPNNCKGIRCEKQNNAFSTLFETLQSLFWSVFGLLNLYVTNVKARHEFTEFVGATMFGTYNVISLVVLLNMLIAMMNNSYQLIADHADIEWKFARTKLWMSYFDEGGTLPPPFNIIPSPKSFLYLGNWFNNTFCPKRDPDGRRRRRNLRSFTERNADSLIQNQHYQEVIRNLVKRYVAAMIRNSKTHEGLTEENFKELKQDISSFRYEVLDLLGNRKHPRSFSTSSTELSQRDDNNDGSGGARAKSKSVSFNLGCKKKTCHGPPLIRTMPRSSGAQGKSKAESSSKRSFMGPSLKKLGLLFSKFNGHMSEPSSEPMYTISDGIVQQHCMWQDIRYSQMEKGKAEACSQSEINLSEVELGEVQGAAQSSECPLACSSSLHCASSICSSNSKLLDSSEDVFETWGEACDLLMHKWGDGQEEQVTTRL
Experiment: Whole-cell patch clamp, block of LaCl3-activated TRPC5 inward current
Assay type: cell-based
Details: TRPC5-expressing HEK293 TREx cells, 80 μM LaCl3, inward current, IC50 estimated from 5 μM and 500 nM, read-out: hTRPC5 Patch La3+ Inwd (nM) (All Batches)
Experimental: In certain embodiments, exemplary compounds of Formula I and Formula II include the compounds described in Table 1 and in the Examples. A compound described herein may be tested for its ability to block both inward and outward currents through the TRPC5 channel, e.g., by an assay as described in Example 1. For example, IC50 of a compound of Formula I or Formula II was estimated by testing the compound at 5 μM and 500 nM. […] IC50 for a compound of Formula I or Formula II between 500 nM and 5 μM was similarly estimated. As shown, “A” refers to an IC50<100 nM. “B” refers to an IC50 between 100 nM and 500 nM. “C” refers to an IC50 between 500 nM and 1000 nM. “D” refers to an IC50 between 1 μM and 2 μM. “E” refers to an IC50 between 2 μM and 10 μM. “F” refers to […]. “ND” refers to compounds wherein the IC50 was not determined.
Patch clamp experiments permit the detection of currents through the TRPC5 channel in the cell line described above. In normal whole-cell patch clamp recordings, a glass electrode is brought into contact with a single cell and a high-resistance (gigaohm) seal is established with the cell membrane. The membrane is then ruptured to achieve the whole-cell configuration, permitting control of the voltage of the cell membrane and measurement of currents flowing across the membrane using the amplifier attached to the electrode and resulting in the replacement of cytoplasm with the pipette solution. A perfusion system permits control of the extracellular solution, including the addition of blockers and activators of the current. The current can be activated by including 1.4 μM free Ca^2+ in the pipette (intracellular) solution, and 80 μM LaCl3 in the extracellular solution.
TRPC5 cells were induced 20-48 hours, removed from growth plates, and replated at low density (to attain good single-cell physical separation) on glass coverslips for measurement. In some cases, cells were grown in low density overnight on glass coverslips. Patch clamp recordings were made in the whole-cell mode with a holding potential of −40 mV. Every 5 seconds, a voltage ramp was applied from −120 to +100 mV, 400 ms in duration. Currents elicited were quantified at −80 mV and +80 mV. The internal solution consisted of 140 mM cesium aspartate, 10 mM HEDTA, 2 mM CaCl2, 2.27 mM MgCl2 and 10 mM HEPES, pH 7.2, with 1,400 nM calculated free Ca^2+. The external solution consisted of 150 mM NaCl, 4.5 mM KCl, 1 mM MgCl2, 2 mM CaCl2, 10 mM HEPES, 10 mM glucose, 1 mM EGTA, pH 7.4. Upon addition of LaCl3, TRPC5 current was induced only in TRPC5-expressing cells and not in parental HEK293 TREx cells. Removal of the LaCl3 stimulus causes most of the current to go away. Potential blockers were tested for ability to block both inward and outward currents in the continued presence of LaCl3.
IC50 of a compound of Formula I or Formula II was estimated by testing the compound at 5 μM and 500 nM. […] IC50 for a compound of Formula I or Formula II between 500 nM and 5 μM was similarly estimated.

| SMILES | IC50 |
| --- | --- |
| CN(C)CCCSc1nc2c(c(=O)n(C)c(=O)n2C)n1Cc1cccc(Br)c1 [Compound 22] | 2000 to 10000 nM |
| CCc1cnc(CSc2nc3c(c(=O)n(C)c(=O)n3C)n2Cc2cccc(Br)c2)o1 [Compound 23] | 100 to 500 nM |
| Cc1nc2c(c(=O)n(C)c(=O)n2C)n1Cc1cccc(Br)c1 [Compound 24, 7-(3-bromobenzyl)-1,3,8-trimethyl-1H-purine-2,6(3H,7H)-dione] | 2000 to 10000 nM |
| Cn1c(=O)c2c(nc(CC(=O)O)n2Cc2cccc(Br)c2)n(C)c1=O [Compound 25, 2-(7-(3-bromobenzyl)-1,3-dimethyl-2,6-dioxo-2,3,6,7-tetrahydro-1H-purin-8-yl)acetic acid] | 2000 to 10000 nM |
| CCCOC(=O)Cc1nc2c(c(=O)n(C)c(=O)n2C)n1Cc1cccc(Br)c1 [Compound 26, Propyl-2-(7-(3-bromobenzyl)-1,3-dimethyl-2,6-dioxo-2,3,6,7-tetrahydro-1H-purin-8-yl)-acetate] | 2000 to 10000 nM |
| CCCNC(=O)Cc1nc2c(c(=O)n(C)c(=O)n2C)n1Cc1cccc(Br)c1 [Compound 27, 2-(7-(3-Bromobenzyl)-1,3-dimethyl-2,6-dioxo-2,3,6,7-tetrahydro-1H-purin-8-yl)-N-propylacetamide] | 2000 to 10000 nM |
| CCOc1nc2c(c(=O)n(C)c(=O)n2C)n1Cc1cccc(Br)c1 [Compound 28, 7-(3-bromobenzyl)-8-ethoxy-1,3-dimethyl-1H-purine-2,6(3H,7H)-dione] | 2000 to 10000 nM |
| CN1CCN(C(=O)Cc2nc3c(c(=O)n(C)c(=O)n3C)n2Cc2cccc(Br)c2)CC1 [Compound 29] | 2000 to 10000 nM |
| C[C@H]1CCCN1c1ncc(-c2cccc(NC(=O)Cc3nc4c(c(=O)n(C)c(=O)n4C)n3Cc3cccc(Br)c3)n2)cn1 [Compound 30] | 2000 to 10000 nM |
| Cn1c(=O)c2c(nc(/C=C/c3ccccc3)n2Cc2cccc(Br)c2)n(C)c1=O [Compound 32] | 2000 to 10000 nM |
| Cn1c(=O)c2c(nc(CCc3ccccc3)n2Cc2cccc(Br)c2)n(C)c1=O [Compound 33, 7-(3-bromobenzyl)-1,3-dimethyl-8-phenethyl-1H-purine-2,6(3H,7H)-dione] | 500 to 1000 nM |
| CCOC(=O)Cc1nc2c(c(=O)n(C)c(=O)n2C)n1Cc1cccc(Br)c1 [Compound 34, Ethyl 2-(7-(3-bromobenzyl)-1,3-dimethyl-2,6-dioxo-2,3,6,7-tetrahydro-1H-purin-8yl)acetate] | 2000 to 10000 nM |
| Cn1c(=O)c2c(nc(CO)n2Cc2cccc(Br)c2)n(C)c1=O [Compound 35] | 2000 to 10000 nM |
| CCOC(=O)/C=C/c1nc2c(c(=O)n(C)c(=O)n2C)n1Cc1cccc(Br)c1 [Compound 36] | 2000 to 10000 nM |
| CCOC(=O)CCc1nc2c(c(=O)n(C)c(=O)n2C)n1Cc1cccc(Br)c1 [Compound 37, ethyl 3-(7-(3-bromobenzyl)-1,3-dimethyl-2,6-dioxo-2,3,6,7-tetrahydro-1H-purin-8-yl)propanoate] | 2000 to 10000 nM |
| Cn1c(=O)c2c(nc(CC(=O)NCCO)n2Cc2cccc(Br)c2)n(C)c1=O [Compound 38, 2-(7-(3-Bromobenzyl)-1,3-dimethyl-2,6-dioxo-2,3,6,7-tetrahydro-1H-purin-8-yl)-N-(2-hydroxyethyl)acetamide] | 2000 to 10000 nM |
| Cn1c(=O)c2c(nc(CCO)n2Cc2cccc(Br)c2)n(C)c1=O [Compound 39, 7-(3-Bromobenzyl)-8-(2-hydroxyethyl)-1,3-dimethyl-1H-purine-2,6(3H,7H)-dione] | 2000 to 10000 nM |

| SMILES | IC50 |
| --- | --- |
| Cn1c(=O)c2c(nc(CCCl)n2Cc2cccc(Br)c2)n(C)c1=O [Compound 40, 7-(3-Bromobenzyl)-8-(2-chloroethyl)-1,3-dimethyl-1H-purine-2,6(3H,7H)-dione] | 2000 to 10000 nM |
| C=Cc1nc2c(c(=O)n(C)c(=O)n2C)n1Cc1cccc(Br)c1 [Compound 41, 7-(3-Bromobenzyl)-1,3-dimethyl-8-vinyl-1H-purine-2,6(3H,7H)-dione] | 2000 to 10000 nM |
| CCCOCCc1nc2c(c(=O)n(C)c(=O)n2C)n1Cc1cccc(Br)c1 [Compound 42, 7-(3-Bromobenzyl)-1,3-dimethyl-8-(2-propoxyethyl)-1H-purine-2,6(3H,7H)-dione] | 1000 to 2000 nM |
| Cn1c(=O)c2c(nc(CCCO)n2Cc2cccc(Br)c2)n(C)c1=O [Compound 43] | 2000 to 10000 nM |
| CC1CCN(Cc2nc3c(c(=O)n(C)c(=O)n3C)n2Cc2cccc(Br)c2)CC1 [Compound 44] | 2000 to 10000 nM |
| Cn1c(=O)c2c(nc(COCc3ccccc3)n2Cc2cccc(Br)c2)n(C)c1=O [Compound 45] | 2000 to 10000 nM |
| CCCNCCc1nc2c(c(=O)n(C)c(=O)n2C)n1Cc1cccc(Br)c1 [Compound 46] | 2000 to 10000 nM |
| Cn1c(=O)c2c(nc(CCNCc3ccccc3)n2Cc2cccc(Br)c2)n(C)c1=O [Compound 47, 8-(2-(Benzylamino)ethyl)-7-(3-bromobenzyl)-1,3-dimethyl-1H-purine-2,6(3H,7H)-dione] | 2000 to 10000 nM |
| CCCN(C)CCc1nc2c(c(=O)n(C)c(=O)n2C)n1Cc1cccc(Br)c1 [Compound 48, 7-(3-Bromobenzyl)-1,3-dimethyl-8-(2-(methyl(propyl)amino)ethyl)-1H-purine-2,6(3H,7H)-dione hydrochloride] | 2000 to 10000 nM |
| CCCN(CCc1nc2c(c(=O)n(C)c(=O)n2C)n1Cc1cccc(Br)c1)C(C)=O [Compound 49] | 2000 to 10000 nM |
| CCOC(=O)CCCc1nc2c(c(=O)n(C)c(=O)n2C)n1Cc1cccc(Br)c1 [Compound 50, Ethyl 4-(7-(3-bromobenzyl)-1,3-dimethyl-2,6-dioxo-2,3,6,7-tetrahydro-1H-purin-8-yl)butanoate] | 1000 to 2000 nM |
| CN1CCN(Cc2nc3c(c(=O)n(C)c(=O)n3C)n2Cc2cccc(Br)c2)CC1 [Compound 51] | 2000 to 10000 nM |
| Cn1c(=O)c2c(nc(CN3CCOCC3)n2Cc2cccc(Br)c2)n(C)c1=O [Compound 52] | 2000 to 10000 nM |
| CCNCCCc1nc2c(c(=O)n(C)c(=O)n2C)n1Cc1cccc(Br)c1 [Compound 53] | 2000 to 10000 nM |
| CCOCCCc1nc2c(c(=O)n(C)c(=O)n2C)n1Cc1cccc(Br)c1 [Compound 54, 7-(3-bromobenzyl)-8-(3-ethoxypropyl)-1,3-dimethyl-1H-purine-2,6(3H,7H)-dione] | 2000 to 10000 nM |
| CCCCOCc1nc2c(c(=O)n(C)c(=O)n2C)n1Cc1cccc(Br)c1 [Compound 55, 7-(3-bromobenzyl)-8-(butoxymethyl)-1,3-dimethyl-1H-purine-2,6(3H,7H)-dione] | 500 to 1000 nM |
| CCOCC(C)(C)Sc1nc2c(c(=O)n(C)c(=O)n2C)n1Cc1cccc(Br)c1 [Compound 56, 7-(3-bromobenzyl)-8-(1-ethoxy-2-methylpropan-2-ylthio)-1,3-dimethyl-1H-purine-2,6(3H,7H)-dione] | 1000 to 2000 nM |
